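These data come from cells grown in 96-well plates and exposed to compound for 48 hours at five concentrations. TGI is the concentration that stops growth completely.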
What was measured:
Assay in all cases: NCI-60 cell line screen, 48 h
OVCAR-4 ovarian = system: OVCAR-4 ovarian
IGROV1 ovarian = system: IGROV1 ovarian
RPMI-8226 leukemia = system: RPMI-8226 leukemia
SNB-75 CNS = system: SNB-75 CNS
TK-10 renal = system: TK-10 renal
MOLT-4 leukemia = system: MOLT-4 leukemia
U251 CNS = system: U251 CNS
SK-MEL-28 melanoma = system: SK-MEL-28 melanoma
LOX IMVI melanoma = system: LOX IMVI melanoma
SR leukemia = system: SR leukemia
SK-OV-3 ovarian = system: SK-OV-3 ovarian
HL-60(TB) leukemia = system: HL-60(TB) leukemia
HS 578T breast = system: HS 578T breast
OVCAR-3 ovarian = system: OVCAR-3 ovarian
SW-620 colon = system: SW-620 colon
786-0 renal = system: 786-0 renal
M14 melanoma = system: M14 melanoma
A549 NSCLC = system: A549 NSCLC
OVCAR-8 ovarian = system: OVCAR-8 ovarian
NCI-H460 lung = system: NCI-H460 lung
SK-MEL-5 melanoma = system: SK-MEL-5 melanoma
T-47D breast = system: T-47D breast
ACHN renal = system: ACHN renal
SF-539 CNS = system: SF-539 CNS
EKVX NSCLC = system: EKVX NSCLC
UO-31 renal = system: UO-31 renal
RXF 393 renal = system: RXF 393 renal
NCI-H522 lung = system: NCI-H522 lung
CCRF-CEM leukemia = system: CCRF-CEM leukemia
K-562 leukemia = system: K-562 leukemia
SF-295 CNS = system: SF-295 CNS
NCI-H23 lung = system: NCI-H23 lung
OVCAR-5 ovarian = system: OVCAR-5 ovarian
HT29 colon = system: HT29 colon
HOP-92 NSCLC = system: HOP-92 NSCLC
HCT-116 colon = system: HCT-116 colon
HCT-15 colon = system: HCT-15 colon
MDA-N = system: MDA-N
PC-3 prostate = system: PC-3 prostate
HOP-62 NSCLC = system: HOP-62 NSCLC
MDA-MB-231 breast = system: MDA-MB-231 breast
DU-145 prostate = system: DU-145 prostate
SF-268 CNS = system: SF-268 CNS
A498 renal = system: A498 renal
SNB-19 CNS = system: SNB-19 CNS
UACC-257 melanoma = system: UACC-257 melanoma
NCI/ADR-RES ovarian = system: NCI/ADR-RES ovarian
HCC-2998 colon = system: HCC-2998 colon
MCF7 breast = system: MCF7 breast
MALME-3M melanoma = system: MALME-3M melanoma
CAKI-1 renal = system: CAKI-1 renal
MDA-MB-435 = system: MDA-MB-435
SK-MEL-2 melanoma = system: SK-MEL-2 melanoma

Measured: TGI

COc1ccccc1N1CCN(Cn2c(=O)oc3cccnc32)CC1
> 100 µM: all assays above
